Experimental data reported in patent US20230035688A1, “METHOD FOR TREATING GASTRIC CANCER BY BLOCKING CCL28 CHEMOTACTIC PATHWAY” (SHANGHAI JIAO TONG UNIVERSITY, priority 2019, published 2023).

Legend:
[1] = system: colon tumor cell lines; details: cited from earlier work
[2] = system: Wnt pathway reporter gene TOPflash; assay: Wnt pathway reporter gene TOPflash luciferase activity with β-catenin overexpression; format: cell-based, human; details: FIG. 2D
Description: (§1) Wnt/β-catenin reporter plasmid M50 Super 8X TOPFlash (Addgene plasmid #12456) and mutant control M51 Super 8X FOPFlash (Addgene plasmid #12457) are gifts from Randall Moon. The promoter of the human CCL28 gene (2.8 kb, −2576/+205 relative to the transcriptional start site) was cloned into the firefly luciferase reporter gene construct pGL4. Mutations of potential TCF/LEF binding sites on the CCL28 promoter were introduced using the Hieff Mut™ Multisite Directed Mutagenesis Kit (Yeasen, Shanghai) to produce a mutant CCL28 promoter report construct (pGL4-CCL28.mut). The plasmids were transfected using a jetPRIME transfection reagent (Polybus Transfection). Transfection efficiency was standardized by co-transfection with a pRL-CMV reporter gene containing the Ranilla Luciferase gene. Firefly and Ranilla luciferase activities were measured using a Dual-Glo luciferase assay system (Promega).
(§2) In this Example, the correlation between CCL28 and β-catenin signaling pathway structure is analyzed in combination with bioinformatics, and then the relationship between the two is verified in the cell model. […] After using β-catenin/TCF, the transcriptional activity of CCL28 promoter was detected after shRNA knockdown of TCF/LEF transcription factor family members or overexpression of TCF/LEF members.

[3] = system: CCL28 protein; assay: CCL28 protein expression in stomach of H. felis/MNU in situ gastric cancer mice (Western blotting, ELISA); format: in vivo, mouse; details: intraperitoneal injection; Western blotting (FIG. 3A) and ELISA (FIG. 3B)
Description: The proteins in gastric cancer cell line and mouse gastric tissue were lysed with RIPA lysate (Thermo Scientific) added with protease inhibitor (Roche), and the protein concentration was detected using BCA Protein Assay Reagent (Thermo Scientific). The detected proteins were as follows: β-catenin (Abcam), CCL28 (R & D Systems), active β-catenin (Merck), GAPDH (Abcam) and β-tubulin (Abcam).
In order to establish gastric cancer mouse mode induced by Helicobacter felis (H. felis) and N-Methyl-N-nitrosourea (MNU), 8-week-old wild-type mice were fed by gavage with H. felis strain (ATCC 49179) three times a week, followed by given drinking water containing 240 ppm MNU every other week for a total of 12 weeks.

[4] = system: CCL28 promoter; assay: CCL28 promoter luciferase reporter gene activity with β-catenin overexpression; format: cell-based, human; details: FIG. 2D
Description: as §1, §2

Cc1cc(/C=C2\SC(=O)N(c3ccccc3)C2=O)c(C)n1-c1cccnc1 [iCRT14]
cell cycle arrest [1]: G0/G1 arrest
activity of Wnt pathway reporter gene TOPflash [2]: reduced the activity of both reporter genes
expression of CCL28 protein in the stomach [3]: significantly reduces the expression of CCL28 protein in the stomach
up-regulation effect of β-catenin on CCL28 promoter activity [4]: reduces the up-regulation effect of β-catenin on CCL28 promoter activity
